Assay results as given in ChEMBL document CHEMBL1201862, “PubChem BioAssay data set” (2004).
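Dose response: 5 concentrations. Exposure: 48 h. Format: 96-well plates. Endpoint: linear interpolation; highest concentration if not reached. Abbreviation: GI50, concentration required for 50% inhibition of growth.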 Activity calls are given as the source filed them. No stated cut-off is given here; in the data, active = GI50 up to about 1.1 µM and inactive = higher.

Legend:
Test in all cases: DTP human tumour cell line panel, 48 h
SF-539 = tested on: SF-539
K562 = tested on: K562
OVCAR-3 = tested on: OVCAR-3
UO-31 = tested on: UO-31
IGROV-1 = tested on: IGROV-1
SN12C = tested on: SN12C
NCI/ADR-RES = tested on: NCI/ADR-RES
Hs-578T = tested on: Hs-578T
HL-60 = tested on: HL-60
UACC-257 = tested on: UACC-257
SNB-19 = tested on: SNB-19
SNB-75 = tested on: SNB-75
SW-620 = tested on: SW-620
TK-10 = tested on: TK-10
HT-29 = tested on: HT-29
KM12 = tested on: KM12
LOX IMVI = tested on: LOX IMVI
U-251 = tested on: U-251
MDA-MB-435 = tested on: MDA-MB-435
BT-549 = tested on: BT-549
HCT-116 = tested on: HCT-116
NCI-H522 = tested on: NCI-H522
DU-145 = tested on: DU-145
MOLT-4 = tested on: MOLT-4
HCT-15 = tested on: HCT-15
CAKI-1 = tested on: CAKI-1
A549 = tested on: A549
PC-3 = tested on: PC-3
UACC-62 = tested on: UACC-62
ACHN = tested on: ACHN
COLO 205 = tested on: COLO 205
CCRF-CEM = tested on: CCRF-CEM
MDA-MB-231 = tested on: MDA-MB-231
SK-MEL-5 = tested on: SK-MEL-5
RPMI-8226 = tested on: RPMI-8226
OVCAR-8 = tested on: OVCAR-8
NCI-H460 = tested on: NCI-H460
NCI-H226 = tested on: NCI-H226
RXF 393 = tested on: RXF 393
EKVX = tested on: EKVX
NCI-H23 = tested on: NCI-H23
SK-OV-3 = tested on: SK-OV-3
786-0 = tested on: 786-0
Malme-3M = tested on: Malme-3M
M14 = tested on: M14
OVCAR-4 = tested on: OVCAR-4
OVCAR-5 = tested on: OVCAR-5
MCF7 = tested on: MCF7
MDA-N = tested on: MDA-N
T47D = tested on: T47D
HOP-62 = tested on: HOP-62
SF-295 = tested on: SF-295
SF-268 = tested on: SF-268
A498 = tested on: A498

SMILES: O=Cc1coc2ccccc2c1=O
- GI50 (SF-539): 16.1 µM (inactive)
- GI50 (K562): 19.3 µM (inactive)
- GI50 (OVCAR-3): 32.1 µM (inactive)
- GI50 (UO-31): 11.9 µM (inactive)
- GI50 (IGROV-1): 15.7 µM (inactive)
- GI50 (SN12C): 19.5 µM (inactive)
- GI50 (NCI/ADR-RES): 16 µM (inactive)
- GI50 (Hs-578T): 18.2 µM (inactive)
- GI50 (HL-60): 18.6 µM (inactive)
- GI50 (UACC-257): 18.7 µM (inactive)
- GI50 (SNB-19): 24.6 µM (inactive)
- GI50 (SNB-75): < 0.01 µM (active)
- GI50 (SW-620): 18.5 µM (inactive)
- GI50 (TK-10): 17.7 µM (inactive)
- GI50 (HT-29): 20.7 µM (inactive)
- GI50 (KM12): 24.2 µM (inactive)
- GI50 (LOX IMVI): 16.9 µM (inactive)
- GI50 (U-251): 21.3 µM (inactive)
- GI50 (MDA-MB-435): 18.5 µM (inactive)
- GI50 (BT-549): 15.6 µM (inactive)
- GI50 (HCT-116): 16.5 µM (inactive)
- GI50 (NCI-H522): 19.1 µM (inactive)
- GI50 (DU-145): 40.6 µM (inactive)
- GI50 (MOLT-4): 24.9 µM (inactive)
- GI50 (HCT-15): 14.3 µM
- GI50 (CAKI-1): 19.2 µM (inactive)
- GI50 (A549): 25.1 µM (inactive)
- GI50 (PC-3): 18.8 µM (inactive)
- GI50 (UACC-62): 19.9 µM (inactive)
- GI50 (ACHN): 19.5 µM (inactive)
- GI50 (COLO 205): 16.1 µM (inactive)
- GI50 (CCRF-CEM): 18.2 µM (inactive)
- GI50 (MDA-MB-231): 18.5 µM (inactive)
- GI50 (SK-MEL-5): 17.8 µM (inactive)
- GI50 (RPMI-8226): 15.3 µM (inactive)
- GI50 (OVCAR-8): 15 µM (inactive)
- GI50 (NCI-H460): 20.9 µM (inactive)
- GI50 (NCI-H226): 37.7 µM (inactive)
- GI50 (RXF 393): 18 µM (inactive)
- GI50 (EKVX): 22.4 µM (inactive)
- GI50 (NCI-H23): 21.9 µM (inactive)
- GI50 (SK-OV-3): 20 µM (inactive)
- GI50 (786-0): 18.1 µM (inactive)
- GI50 (Malme-3M): 9.68 µM (inactive)
- GI50 (M14): 17.9 µM (inactive)
- GI50 (OVCAR-4): 13.8 µM (inactive)
- GI50 (OVCAR-5): 23.1 µM (inactive)
- GI50 (MCF7): 19.2 µM (inactive)
- GI50 (MDA-N): 20.5 µM (inactive)
- GI50 (T47D): 48.1 µM (inactive)
- GI50 (HOP-62): 19.1 µM (inactive)
- GI50 (SF-295): 17.9 µM (inactive)
- GI50 (SF-268): 20.8 µM (inactive)
- GI50 (A498): 44.2 µM (inactive)
